Results as given in patent publication US10125134B2 (Mirati Therapeutics, Inc., priority 2016, dated 2018).
pIC50: −log10 of the molar value. Where two headings read alike, the source gives them in different places.

Assays:
KRas G12C = KRas G12C (Homo sapiens, UniProt P01116, C118S/C51S/C80L/G12C); test: KRas G12C Modification Assay (LCMS detection of covalent adduct); type: binding; settings: normalized percent of control; tested at 5 μM concentration for 3 hours
Outline: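 Cys-light KRas G12C mutant protein incubated with compound in K-Ras assay buffer, reactions quenched at set time points with 25 mM acetic acid and analysed by intact-protein LC/MS on a C-3 column. Deconvoluted mass heights expressed as percent of control (POC) relative to compound-free protein.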

[1] = system: NCI-H358 cells (express KRas G12C), Phospho-ERK; test: Cellular inhibition of KRas G12C: Phospho-ERK in NCI-H358 cells; type: cell-based; settings: Homo sapiens, pERK(Thr202/Tyr204) normalized with GAPDH, NCI-H358 cells, 3 hours, read-out: IC50
Outline: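 IC50 derived by 4-parameter fit of GAPDH-normalized pERK(Thr202/Tyr204) signal, as percent of DMSO control. Signal came from in-cell immunodetection with infrared secondaries after 3 h compound exposure of KRas G12C NCI-H358 cells at 0.5% DMSO.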

POC (KRas G12C) | Structure (SMILES) | pIC50 ([1]; NCI-H358, 3 h) | pIC50 [1]
A (“A”≤25% POC) | C=CC(=O)N1CCN(c2ncnc3c2CCN(c2c(O)cccc2F)C3)CC1 [Example 4, 1-(4-(7-(2-fluoro-6-hydroxyphenyl)-5,6,7,8-tetrahydropyrido[3,4-d]pyrimidin-4-yl)piperazin-1-yl)prop-2-en-1-one] | < 6.00 | –
C (“C”>50% POC) | C=CC(=O)N1CCN(c2nc(OCCN3CCC[C@H](OC)C3)nc3c2CCN(c2cc(O)cc4ccccc24)C3)CC1 [Example 98, (S)-1-(4-(7-(3-hydroxynaphthalen-1-yl)-2-(2-(3-methoxypiperidin-1-yl)ethoxy)-5,6,7,8-tetrahydropyrido[3,4-d]pyrimidin-4-yl)piperazin-1-yl)prop-2-en-1-one] | < 6.00 | –
C (“C”>50% POC) | C=CC(=O)N1CCN(c2nc(OC(C)CCN3CCOCC3)nc3c2CCN(c2cc(O)cc4ccccc24)C3)CC1 (stereo not drawn) [Example 93, 1-(4-(7-(3-hydroxynaphthalen-1-yl)-2-((4-morpholinobutan-2-yl)oxy)-5,6,7,8-tetrahydropyrido[3,4-d]pyrimidin-4-yl)piperazin-1-yl)prop-2-en-1-one] | < 6.00 | –
A (“A”≤25% POC) | C=CC(=O)N1CCN(c2ncnc3c2CCN(c2cccc4ccc(O)cc24)C3)CC1 [Example 2, 1-(4-(7-(7-hydroxynaphthalen-1-yl)-5,6,7,8-tetrahydropyrido[3,4-d]pyrimidin-4-yl)piperazin-1-yl)prop-2-en-1-one] | < 6.00 | –

More lines, now with the values behind:

Structure (SMILES) | POC (KRas G12C) | pIC50 ([1]; NCI-H358, 3 h) | pIC50 [1]
C=CC(=O)N1CCN(c2nc(OC[C@]3(C)CCCN3C)nc3c2CCN(c2cccc4ccccc24)C3)CC1CC#N (stereo partly drawn) [Example 394, 2-(1-acryloyl-4-(2-(((S)-1,2-dimethylpyrrolidin-2-yl)methoxy)-7-(naphthalen-1-yl)-5,6,7,8-tetrahydropyrido[3,4-d]pyrimidin-4-yl)piperazin-2-yl)acetonitrile] | C (“C”>50% POC) | 6.00 to 10.00 | –
C=CC(=O)N1CCN(c2nc(OC[C@@]3(C)CCCN3C)nc3c2CCN(c2cccc(F)c2C(F)(F)F)C3)CC1CC#N (stereo partly drawn) [Example 417, 2-(1-acryloyl-4-(2-(((R)-1,2-dimethylpyrrolidin-2-yl)methoxy)-7-(3-fluoro-2-(trifluoromethyl)phenyl)-5,6,7,8-tetrahydropyrido[3,4-d]pyrimidin-4-yl)piperazin-2-yl)acetonitrile] | C (“C”>50% POC) | – | 6.00 to 10.00
C=CC(=O)N1CCN(c2nc(OC[C@@H]3CCCN3C)nc3c2CCN(c2cccc4cccc(C(F)(F)F)c24)C3)C[C@@H]1CC#N [Example 433, 2-((S)-1-acryloyl-4-(2-(((S)-1-methylpyrrolidin-2-yl)methoxy)-7-(8-(trifluoromethyl)naphthalen-1-yl)-5,6,7,8-tetrahydropyrido[3,4-d]pyrimidin-4-yl)piperazin-2-yl)acetonitrile] | C (“C”>50% POC) | 6.00 to 10.00 | –
CC#CC(=O)N1CCN(c2nc(OC[C@@H]3CCCN3C)nc3c2CCN(c2cccc(C)c2C)C3)C[C@@H]1CC#N [Example 389, 2-((S)-1-(but-2-ynoyl)-4-(7-(2,3-dimethylphenyl)-2-(((S)-1-methylpyrrolidin-2-yl)methoxy)-5,6,7,8-tetrahydropyrido[3,4-d]pyrimidin-4-yl)piperazin-2-yl)acetonitrile] | C (“C”>50% POC) | < 6.00 | –
C=CC(=O)N1CCN(c2nc(OC[C@H]3CN(C)CCO3)nc3c2CCN(c2cccc4cccc(Cl)c24)C3)C[C@@H]1CC#N [Example 363, 2-[(2S)-4-[7-(8-chloro-1-naphthyl)-2-[[(2R)-4-methylmorpholin-2-yl]methoxy]-6,8-dihydro-5H-pyrido[3,4-d]pyrimidin-4-yl]-1-prop-2-enoyl-piperazin-2-yl]acetonitrile] | C (“C”>50% POC) | 6.00 to 10.00 | –
